# Legend:
# Type in all cases: biochemical
# [1] = target: T1, Recombinant human FAP (Homo sapiens, UniProt Q12884); assay: FAP inhibition, fluorogenic substrate Z-Gly-Pro-AMC; details: 25° C., Z-Gly-Pro-AMC substrate
# T1 construct: purchased R&D systems
# T1 sequence (Q12884 1-760): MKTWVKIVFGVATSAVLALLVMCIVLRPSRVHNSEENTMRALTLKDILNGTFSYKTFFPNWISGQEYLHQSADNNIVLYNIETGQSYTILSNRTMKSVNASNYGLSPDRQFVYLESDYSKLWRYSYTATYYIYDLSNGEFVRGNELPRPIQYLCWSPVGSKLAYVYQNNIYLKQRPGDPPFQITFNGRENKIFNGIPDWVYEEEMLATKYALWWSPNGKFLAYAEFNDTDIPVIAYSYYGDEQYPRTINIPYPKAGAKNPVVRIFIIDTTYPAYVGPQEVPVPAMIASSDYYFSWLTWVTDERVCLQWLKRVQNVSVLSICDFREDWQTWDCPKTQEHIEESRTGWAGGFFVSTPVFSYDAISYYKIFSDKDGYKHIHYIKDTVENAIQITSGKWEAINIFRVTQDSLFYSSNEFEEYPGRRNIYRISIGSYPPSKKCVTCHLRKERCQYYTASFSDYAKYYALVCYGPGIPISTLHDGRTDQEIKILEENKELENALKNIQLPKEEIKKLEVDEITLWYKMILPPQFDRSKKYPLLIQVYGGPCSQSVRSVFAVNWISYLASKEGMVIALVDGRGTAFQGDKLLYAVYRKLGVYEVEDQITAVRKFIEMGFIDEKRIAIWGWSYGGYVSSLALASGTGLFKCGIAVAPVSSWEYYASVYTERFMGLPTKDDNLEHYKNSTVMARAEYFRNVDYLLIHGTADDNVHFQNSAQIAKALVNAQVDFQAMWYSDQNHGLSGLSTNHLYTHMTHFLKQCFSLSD
# Summary of the method: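 Eight-point compound dilutions (≤0.1% DMSO) were incubated at 25° C with 10 ng recombinant human FAP in Tris pH 7.5/1 M NaCl/BSA buffer and Z-Gly-Pro-AMC. Inhibition was taken as % drop in fluorescence rate (380/460 nm) against uninhibited control; IC50 came from a four-parameter logistic fit.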
# [2] = target: T2, recombinant human DPP7 (Homo sapiens, UniProt Q9UHL4); assay: DPP7 inhibition, fluorogenic substrate Lys-Pro-AMC
# T2 construct: purchased R&D Systems
# Summary of the method: (§1)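 Inhibitors are titrated in an 8-point series into the enzyme's assay buffer (DMSO no more than 0.5%). Substrate cleavage at 25 °C is followed by fluorescence, excitation 380 nm and emission 460 nm. IC50 values come from a four-variable logistic model.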
# [3] = target: T3, recombinant human DPP8 (Homo sapiens, UniProt Q6V1X1); assay: DPP8 inhibition, fluorogenic substrate Z-Ala-Pro-AMC; details: 25° C., Z-Ala-Pro-AMC substrate
# T3 construct: purchased PBS Bioscience
# T3 sequence (Q6V1X1 whole entry): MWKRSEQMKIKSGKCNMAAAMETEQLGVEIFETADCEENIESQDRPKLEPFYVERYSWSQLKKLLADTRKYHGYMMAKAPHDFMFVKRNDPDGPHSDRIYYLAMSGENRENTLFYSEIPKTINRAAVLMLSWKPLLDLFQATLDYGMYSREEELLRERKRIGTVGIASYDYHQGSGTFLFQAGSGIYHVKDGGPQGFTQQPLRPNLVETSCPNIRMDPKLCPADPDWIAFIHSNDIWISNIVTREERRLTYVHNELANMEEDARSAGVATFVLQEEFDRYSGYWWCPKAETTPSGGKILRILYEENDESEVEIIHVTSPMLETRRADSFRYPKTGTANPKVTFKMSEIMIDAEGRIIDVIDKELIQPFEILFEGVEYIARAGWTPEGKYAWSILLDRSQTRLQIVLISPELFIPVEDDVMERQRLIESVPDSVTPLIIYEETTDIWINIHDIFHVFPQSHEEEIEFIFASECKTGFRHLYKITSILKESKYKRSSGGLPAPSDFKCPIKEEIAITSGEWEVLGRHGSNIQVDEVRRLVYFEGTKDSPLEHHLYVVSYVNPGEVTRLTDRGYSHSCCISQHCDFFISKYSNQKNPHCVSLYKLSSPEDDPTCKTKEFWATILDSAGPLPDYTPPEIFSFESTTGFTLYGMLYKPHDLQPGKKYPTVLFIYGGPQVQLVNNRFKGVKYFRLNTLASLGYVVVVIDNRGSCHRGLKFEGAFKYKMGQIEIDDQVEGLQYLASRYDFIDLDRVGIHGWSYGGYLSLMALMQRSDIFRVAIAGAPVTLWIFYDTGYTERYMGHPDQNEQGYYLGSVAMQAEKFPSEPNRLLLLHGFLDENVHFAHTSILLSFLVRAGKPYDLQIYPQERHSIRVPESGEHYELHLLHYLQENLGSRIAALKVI
# Summary of the method: as §1
# [4] = target: T4, recombinant human DPP9 (Homo sapiens, UniProt Q86TI2); assay: DPP9 inhibition, fluorogenic substrate H-Gly-Pro-AMC; details: 25° C., H-Gly-Pro-AMC substrate
# T4 construct: purchased R&D Systems
# T4 sequence (Q86TI2 whole entry): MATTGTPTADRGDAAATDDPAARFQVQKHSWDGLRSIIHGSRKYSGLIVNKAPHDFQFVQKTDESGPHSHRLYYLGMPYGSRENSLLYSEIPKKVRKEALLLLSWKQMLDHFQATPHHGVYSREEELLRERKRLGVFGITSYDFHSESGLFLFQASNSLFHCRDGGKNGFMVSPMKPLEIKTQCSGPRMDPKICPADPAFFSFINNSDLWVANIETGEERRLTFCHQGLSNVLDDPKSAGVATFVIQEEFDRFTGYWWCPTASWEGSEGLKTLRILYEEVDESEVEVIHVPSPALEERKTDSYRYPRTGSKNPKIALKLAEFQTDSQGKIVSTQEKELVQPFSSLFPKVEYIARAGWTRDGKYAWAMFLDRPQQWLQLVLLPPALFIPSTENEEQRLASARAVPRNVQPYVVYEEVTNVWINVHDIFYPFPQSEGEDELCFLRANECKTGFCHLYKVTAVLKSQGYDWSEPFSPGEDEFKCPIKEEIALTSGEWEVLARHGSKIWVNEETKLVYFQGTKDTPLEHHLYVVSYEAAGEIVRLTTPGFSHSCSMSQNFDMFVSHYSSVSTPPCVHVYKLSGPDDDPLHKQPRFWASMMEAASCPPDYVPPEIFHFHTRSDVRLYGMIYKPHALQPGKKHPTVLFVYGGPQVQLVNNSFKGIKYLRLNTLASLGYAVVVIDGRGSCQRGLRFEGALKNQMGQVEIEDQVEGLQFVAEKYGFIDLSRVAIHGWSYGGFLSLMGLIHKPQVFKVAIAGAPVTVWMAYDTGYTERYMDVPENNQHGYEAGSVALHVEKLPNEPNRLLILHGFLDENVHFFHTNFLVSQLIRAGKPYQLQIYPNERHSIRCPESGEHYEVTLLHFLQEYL
# Summary of the method: as §1
# [5] = target: T5, recombinant human PREP (Homo sapiens, UniProt P48147); assay: PREP inhibition, fluorogenic substrate Z-Gly-Pro-AMC; details: Inhibitory Activity (IC50, nM) PREP, 25° C., Z-Gly-Pro-AMC substrate
# T5 construct: purchased R&D System
# T5 sequence (P48147 1-710): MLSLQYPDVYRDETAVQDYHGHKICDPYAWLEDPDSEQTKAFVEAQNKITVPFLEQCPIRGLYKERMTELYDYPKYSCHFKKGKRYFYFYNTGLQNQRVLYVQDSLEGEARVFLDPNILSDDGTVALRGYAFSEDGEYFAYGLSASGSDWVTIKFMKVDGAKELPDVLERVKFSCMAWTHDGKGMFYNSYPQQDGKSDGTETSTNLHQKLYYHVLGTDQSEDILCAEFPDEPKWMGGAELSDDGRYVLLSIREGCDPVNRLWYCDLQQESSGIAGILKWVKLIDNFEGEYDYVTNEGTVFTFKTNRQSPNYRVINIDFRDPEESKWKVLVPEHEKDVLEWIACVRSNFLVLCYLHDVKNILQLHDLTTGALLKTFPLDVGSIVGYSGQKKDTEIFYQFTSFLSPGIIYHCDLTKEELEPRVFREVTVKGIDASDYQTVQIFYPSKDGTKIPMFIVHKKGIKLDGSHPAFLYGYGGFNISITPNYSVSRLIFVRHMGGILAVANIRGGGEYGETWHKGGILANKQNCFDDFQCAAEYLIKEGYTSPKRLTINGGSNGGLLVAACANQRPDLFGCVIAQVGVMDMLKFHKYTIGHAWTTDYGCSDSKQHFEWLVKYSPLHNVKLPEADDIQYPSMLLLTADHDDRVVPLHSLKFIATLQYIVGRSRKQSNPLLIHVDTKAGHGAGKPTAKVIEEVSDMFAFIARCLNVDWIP
# Summary of the method: as §1
# [6] = target: DPP4 (Homo sapiens, UniProt P27487); assay: DPP4 inhibition, fluorogenic substrate H-Gly-Pro-AMC; design: purchased R&D Systems; details: for inhibition at 1 µM: read-out: hDPP4 inhibition % at 1 μM; for IC50: 25° C., H-Gly-Pro-AMC substrate
# Chain of DPP4 (P27487 whole entry): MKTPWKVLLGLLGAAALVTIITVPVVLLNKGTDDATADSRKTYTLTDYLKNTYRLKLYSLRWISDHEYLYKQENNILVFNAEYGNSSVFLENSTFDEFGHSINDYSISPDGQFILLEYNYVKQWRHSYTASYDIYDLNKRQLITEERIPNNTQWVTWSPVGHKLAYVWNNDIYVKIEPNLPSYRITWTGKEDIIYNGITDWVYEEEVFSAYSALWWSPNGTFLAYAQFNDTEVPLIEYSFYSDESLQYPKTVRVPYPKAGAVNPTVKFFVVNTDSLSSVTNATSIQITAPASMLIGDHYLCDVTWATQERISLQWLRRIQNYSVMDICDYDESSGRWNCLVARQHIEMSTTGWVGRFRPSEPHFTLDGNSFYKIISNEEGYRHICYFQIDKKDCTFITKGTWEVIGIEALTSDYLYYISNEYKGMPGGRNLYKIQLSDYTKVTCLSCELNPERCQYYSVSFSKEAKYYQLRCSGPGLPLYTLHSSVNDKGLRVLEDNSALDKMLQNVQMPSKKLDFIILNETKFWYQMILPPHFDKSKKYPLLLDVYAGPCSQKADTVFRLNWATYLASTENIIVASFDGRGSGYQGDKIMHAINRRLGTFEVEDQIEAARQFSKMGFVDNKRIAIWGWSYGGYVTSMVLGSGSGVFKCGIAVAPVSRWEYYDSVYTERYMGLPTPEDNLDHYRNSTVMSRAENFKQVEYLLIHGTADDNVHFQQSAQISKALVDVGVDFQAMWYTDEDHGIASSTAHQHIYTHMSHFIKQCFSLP
SMILES,IC50 [1] [µM],IC50 [2] [µM],IC50 [3] [µM],IC50 [4] [µM],IC50 [5] [nM],inhibition at 1 µM [6] [%],IC50 [6] [µM]
"N#C[C@@H]1CCCN1C(=O)CN1CC[C@H](NC(=O)c2coc3ccc(F)cc23)C1 [Example 43, N—((S)-1-(2-((S)-2-cyanopyrrolidin-1-yl)-2-oxoethyl)pyrrolidin-3-yl)-5-fluorobenzofuran-3-carboxamide]",0.00994,3.37,44.7,> 100,8350,0.2,–
"N#C[C@@H]1CCCN1C(=O)CN1CC[C@H](NC(=O)c2coc3cc(F)ccc23)C1 [Example 44, N—((S)-1-(2-((S)-2-cyanopyrrolidin-1-yl)-2-oxoethyl)pyrrolidin-3-yl)-6-fluorobenzofuran-3-carboxamide]",0.00507,1.72,46.2,> 100,12100,1.4,–
"N#C[C@@H]1CCCN1C(=O)CN1CC[C@H](NC(=O)c2coc3cccc(O)c23)C1 [Example 48, N—((S)-1-(2-((S)-2-cyanopyrrolidin-1-yl)-2-oxoethyl)pyrrolidin-3-yl)-4-hydroxybenzofuran-3-carboxamide]",0.00223,0.762,12,> 100,6750,3.6,–
"N#C[C@@H]1CCCN1C(=O)CN1CC[C@H](NC(=O)c2coc3cc(O)ccc23)C1 [Example 49, N—((S)-1-(2-((S)-2-cyanopyrrolidin-1-yl)-2-oxoethyl)pyrrolidin-3-yl)-6-hydroxybenzofuran-3-carboxamide]",0.00442,4.37,12.3,92.6,8360,0.6,–
"N#C[C@@H]1CCCN1C(=O)CN1CC[C@H](NC(=O)c2coc3c(F)cc(F)cc23)C1 [Example 51, N—((S)-1-(2-((S)-2-cyanopyrrolidin-1-yl)-2-oxoethyl)pyrrolidin-3-yl)-5,7-difluorobenzofuran-3-carboxamide]",0.0109,3.32,38.9,> 100,13400,0.6,–
"COc1ccc2c(C(=O)N[C@H]3CCN(CC(=O)N4CCC[C@H]4C#N)C3)coc2c1 [Example 54, N—((S)-1-(2-((S)-2-cyanopyrrolidin-1-yl)-2-oxoethyl)pyrrolidin-3-yl)-6-methoxybenzofuran-3-carboxamide]",0.00848,2.39,23.2,> 100,5500,2,–
"N#C[C@@H]1CCCN1C(=O)CN1CC[C@H](NC(=O)c2ccc3ccoc3c2)C1 [Example 57, N—((S)-1-(2-((S)-2-cyanopyrrolidin-1-yl)-2-oxoethyl)pyrrolidin-3-yl)benzofuran-6-carboxamide]",0.0251,0.499,6,26.5,10200,0.6,–
"N#C[C@@H]1CCCN1C(=O)CN1CC[C@H](Oc2cccc3cccnc23)C1 [Example 64, (S)-1-(2-((S)-3-(quinolin-8-yloxy)pyrrolidin-1-yl)acetyl)pyrrolidine-2-carbonitrile]",0.019,3.56,> 100,15.7,84000,–,> 1
"N#C[C@@H]1CCCN1C(=O)CN1CC[C@H](Oc2cccc3cnccc23)C1 [Example 65, (S)-1-(2-((S)-3-(isoquinolin-5-yloxy)pyrrolidin-1-yl)acetyl)pyrrolidine-2-carbonitrile]",0.00677,3.4,> 100,70.6,85700,–,> 1
"N#C[C@@H]1CCCN1C(=O)CN1CC[C@H](Oc2ncnc3sccc23)C1 [Example 68, (S)-1-(2-((S)-3-(thieno[2,3-d]pyrimidin-4-yloxy)pyrrolidin-1-yl)acetyl)pyrrolidine-2-carbonitrile]",0.00796,3.73,> 100,> 100,> 100000,–,> 1
"N#C[C@@H]1CCCN1C(=O)CN1CC[C@H](Oc2cccc3[nH]c(=O)ccc23)C1 [Example 75, (S)-1-(2-((S)-3-((2-oxo-1,2-dihydroquinolin-5-yl)oxy)pyrrolidin-1-yl)acetyl)pyrrolidine-2-carbonitrile]",0.00984,0.814,93.2,> 100,5250,–,> 1
"N#C[C@@H]1CCCN1C(=O)CN1CC[C@H](Oc2ccc(Cl)c3cccnc23)C1 [Example 81, (S)-1-(2-((S)-3-((5-chloroquinolin-8-yl)oxy)pyrrolidin-1-yl)acetyl)pyrrolidine-2-carbonitrile]",0.0076,5.94,27.4,84.9,3930,–,> 1
"COc1ccc2nccc(O[C@H]3CCN(CC(=O)N4CCC[C@H]4C#N)C3)c2c1 [Example 84, (S)-1-(2-((S)-3-((6-methoxyquinolin-4-yl)oxy)pyrrolidin-1-yl)acetyl)pyrrolidine-2-carbonitrile]",0.001,9.46,> 100,> 100,5400,–,> 1
"COc1ccc2c(O[C@H]3CCN(CC(=O)N4CCC[C@H]4C#N)C3)ccnc2c1 [Example 100, (S)-1-(2-((S)-3-((7-methoxyquinolin-4-yl)oxy)pyrrolidin-1-yl)acetyl)pyrrolidine-2-carbonitrile]",0.0135,1.15,73.8,> 100,2490,–,> 1
"COc1cc2nccc(O[C@H]3CCN(CC(=O)N4CCC[C@H]4C#N)C3)c2cc1OC [Example 101, (S)-1-(2-((S)-3-((6,7-dimethoxyquinolin-4-yl)oxy)pyrrolidin-1-yl)acetyl)pyrrolidine-2-carbonitrile]",0.00057,0.626,> 100,> 100,3020,–,> 1
"COc1ccc2nccc(O[C@H]3CCN(CC(=O)N4CC(F)(F)C[C@H]4C#N)C3)c2c1 [Example 103, (S)-4,4-difluoro-1-(2-((S)-3-((6-methoxyquinolin-4-yl)oxy)pyrrolidin-1-yl)acetyl)pyrrolidine-2-carbonitrile]",0.00068,0.174,7.68,4.75,5670,–,> 1
"N#C[C@@H]1CC(F)(F)CN1C(=O)CN1CC[C@H](Oc2ccnc3c(C(F)(F)F)cccc23)C1 [Example 104, (S)-4,4-difluoro-1-(2-((S)-3-((8-(trifluoromethyl)quinolin-4-yl)oxy)pyrrolidin-1-yl)acetyl)pyrrolidine-2-carbonitrile]",0.00114,0.0834,16.2,22.2,3080,–,> 1
